Results from ChEMBL document CHEMBL5226286, “The application of isatin-based multicomponent-reactions in the quest for new bioactive and druglike molecules” (Eur J Med Chem, 2021).
≈ marks a conversion by molar mass, not a printed value. Calls of active or inactive are those of the source. The calls are words filed in the database; no cut-off is given here.

Key:
[1] = system: A549; assay: Antiproliferative activity against human A549 cells; type: functional, cell-based
[2] = system: Mycobacterium tuberculosis; assay: Antimycobacterial activity against active stage of Mycobacterium tuberculosis H37Ra ATCC 25177 assessed as minimum inhibitory concentration by XTT assay; type: functional
[3] = system: Mycobacterium tuberculosis; assay: Antimycobacterial activity against dormant stage of Mycobacterium tuberculosis H37Ra ATCC 25177 assessed as minimum inhibitory concentration by XTT assay; type: functional
[4] = system: Escherichia coli; assay: Antibacterial activity against Escherichia coli NCIM 2688 measured after 8 hrs; type: functional
[5] = system: Pseudomonas aeruginosa; assay: Antibacterial activity against Pseudomonas aeruginosa NCIM […] measured after 8 hrs; type: functional
[6] = system: Bacillus subtilis; assay: Antibacterial activity against Bacillus subtilis NCIM 2079 measured after 12 hrs; type: functional
[7] = system: Staphylococcus aureus; assay: Antibacterial activity against Staphylococcus aureus NCIM 2010 measured after 12 hrs; type: functional
[8] = system: MDA-MB-231; assay: cells; type: functional, cell-based; conditions: Homo sapiens
Description: Antiproliferative activity against human MDA-MB-231 cells

[9] = system: HeLa; assay: Antiproliferative activity against human HeLa cells; type: functional, cell-based
[10] = system: HepG2; assay: cells; type: functional, cell-based; conditions: Homo sapiens
Description: Antiproliferative activity against human HepG2 cells

[11] = system: Aspergillus niger; assay: Antifungal activity against Aspergillus niger; type: functional
[12] = system: Aspergillus flavus; assay: Antifungal activity against Aspergillus flavus; type: functional
[13] = Antioxidant activity assessed as DPPH radical scavenging activity at 1 mg/ml relative to control; type: functional
[14] = system: MCF7; assay: Cytotoxicity against human MCF7 cells; type: functional, cell-based
[15] = system: Streptococcus pneumoniae; assay: Antibacterial activity against Streptococcus pneumoniae incubated for 24 to 48 hrs by agar diffusion well method; type: functional; conditions: time 24-48 hrs
[16] = system: Bacillus subtilis; assay: Antibacterial activity against Bacillus subtilis incubated for 24 to 48 hrs by agar diffusion well method; type: functional; conditions: time 24-48 hrs
[17] = system: Pseudomonas aeruginosa; assay: Antibacterial activity against Pseudomonas aeruginosa incubated for 24 to 48 hrs by agar diffusion well method; type: functional; conditions: time 24-48 hrs
[18] = system: Escherichia coli; assay: Antibacterial activity against Escherichia coli incubated for 24 to 48 hrs by agar diffusion well method; type: functional; conditions: time 24-48 hrs
[19] = system: Aspergillus fumigatus; assay: Antifungal activity against Aspergillus fumigatus RCMB 02568; type: functional
[20] = system: Syncephalastrum racemosum; assay: Antifungal activity against Syncephalastrum racemosum RCMB 05922; type: functional
[21] = system: Geotrichum candidum; assay: Antifungal activity against Geotrichum candidum RCMB 05097; type: functional
[22] = system: Candida albicans; assay: Antifungal activity against Candida albicans RCMB 05036; type: functional
[23] = system: Staphylococcus aureus; assay: Antibacterial activity against Staphylococcus aureus by disc diffusion method; type: functional
[24] = system: Bacillus subtilis; assay: Antibacterial activity against Bacillus subtilis by disc diffusion method; type: functional
[25] = system: Escherichia coli; assay: Antibacterial activity against Escherichia coli by disc diffusion method; type: functional
[26] = system: Pseudomonas aeruginosa; assay: Antibacterial activity against Pseudomonas aeruginosa by disc diffusion method; type: functional
[27] = system: A549; assay: Cytotoxicity against human A549 cells incubated for 48 hrs by MTT assay; type: functional, cell-based; conditions: A549, 48 h
[28] = system: HeLa; assay: Cytotoxicity against human HeLa cells incubated for 48 hrs by MTT assay; type: functional, cell-based
[29] = system: MCF7; assay: Cytotoxicity against human MCF7 cells incubated for 48 hrs by MTT assay; type: functional, cell-based; conditions: MCF7, 48 h
[30] = system: DU-145; assay: Cytotoxicity against human DU-145 cells incubated for 48 hrs by MTT assay; type: functional, cell-based; conditions: DU-145, 48 h

COc1ccc2[nH]cc(C(=O)C3(C#N)C(c4ncc[nH]4)CN(C)C34C(=O)Nc3ccccc34)c2c1 (stereo not drawn)
IC50 [1]: 66.3 µM

Cc1ccc(Cn2cc(CN3C(=O)C4(C(C#N)=C(N)Oc5cc(C)oc(=O)c54)c4ccccc43)nn2)cc1 (stereo not drawn)
MIC [2]: 14 µg/mL (≈ 27.6 µM)
MIC [3]: 7.3 µg/mL (≈ 14.4 µM)
MIC90 [4]: 1.97 µg/mL (≈ 3.89 µM)
MIC90 [5]: 3.08 µg/mL (≈ 6.08 µM)
MIC90 [6]: 2.85 µg/mL (≈ 5.63 µM)
MIC90 [7]: 4.27 µg/mL (≈ 8.43 µM)

N#CC1=C(N)Oc2c(ccc3[nH]c4ccccc4c23)C12C(=O)N(Cc1cn(Cc3ccc(C(F)(F)F)cc3)nn1)c1ccccc12 (stereo not drawn)
IC50 [8]: 61.9 µM
IC50 [9]: 3.5 µM

Cc1cc2c(c(=O)o1)C1(C(=O)N(Cc3cn(Cc4ccc(Cl)cc4)nn3)c3ccc(Br)cc31)C(C#N)=C(N)O2 (stereo not drawn)
MIC [2]: 6.63 µg/mL (≈ 10.9 µM)
MIC [3]: 6.8 µg/mL (≈ 11.2 µM)
MIC90 [4]: 2.75 µg/mL (≈ 4.54 µM)
MIC90 [5]: 2.33 µg/mL (≈ 3.85 µM)
MIC90 [6]: 5.27 µg/mL (≈ 8.7 µM)
MIC90 [7]: 3.86 µg/mL (≈ 6.37 µM)

O=C1C(=O)c2ccccc2C2=C1C1(C(=O)Nc3ccc(F)cc31)N1NN=NC1=N2 (stereo not drawn)
IC50 [10]: 2.9 µM

CC(=O)O[C@H]1C(=O)[C@@]2(C)[C@H]([C@H](OC(=O)c3ccccc3)[C@]3(O)C[C@H](OC(=O)[C@H](O)[C@@H](NC(=O)c4ccccc4)c4ccccc4)C(C)=C1C3(C)C)[C@]1(OC(C)=O)CO[C@@H]1C[C@@H]2O [PACLITAXEL]
IC50 [8]: 0.1 µM
IC50 [9]: 0.006 µM

O=C(c1ccc(F)cc1)C1C(c2ccc(Cl)cc2)C(CO)NC12C(=O)Nc1ccccc12 (stereo not drawn)
MIC [11]: 20 µg/mL (≈ 44.4 µM)
MIC [12]: 20 µg/mL (≈ 44.4 µM)
Activity [13]: 88.1%

N#CC1=C(N)Oc2c(ccc3[nH]c4ccccc4c23)C12C(=O)N(Cc1cn(Cc3ccc([N+](=O)[O-])cc3)nn1)c1ccccc12 (stereo not drawn)
IC50 [8]: 51.2 µM
IC50 [9]: 6.3 µM

Cc1ccc(Cn2cc(CN3C(=O)C4(C(C#N)=C(N)Oc5cc(C)oc(=O)c54)c4cc(Cl)ccc43)nn2)cc1 (stereo not drawn)
MIC [2]: > 50 µg/mL
MIC [3]: 11.6 µg/mL (≈ 21.4 µM)
MIC90 [4]: 2.65 µg/mL (≈ 4.9 µM)
MIC90 [5]: 4.88 µg/mL (≈ 9.02 µM)
MIC90 [6]: 7.19 µg/mL (≈ 13.3 µM)
MIC90 [7]: 2.41 µg/mL (≈ 4.45 µM)

O=C(c1ccc(F)cc1)C1C(c2ccc(Cl)cc2)CNC12C(=O)Nc1ccccc12 (stereo not drawn)
Activity [13]: 88.7%

NC[C@H]1O[C@H](O[C@H]2[C@H](O)[C@@H](O[C@H]3O[C@H](CO)[C@@H](O)[C@H](N)[C@H]3O)[C@H](N)C[C@@H]2N)[C@H](O)[C@@H](O)[C@@H]1O [KANAMYCIN]
MIC90 [4]: 1.62 µg/mL (≈ 3.34 µM)
MIC90 [5]: 0.49 µg/mL (≈ 1.01 µM)
MIC90 [6]: 1.35 µg/mL (≈ 2.79 µM)
MIC90 [7]: > 30 µg/mL

CCOC(=O)C1=C(C(=O)OCC)C2(NC1(C(=O)OCC)C(=O)OCC)C(=O)Nc1ccccc12 (stereo not drawn)
IC50 [14]: 28 µM

N[C@@H](CCC(=O)N[C@@H](CS)C(=O)NCC(=O)O)C(=O)O
Activity [13]: 92%

CC(C)CC1NC2(C(=O)Nc3ccccc32)C(C(=O)c2ccc(F)cc2)C1c1ccc(Cl)cc1 (stereo not drawn)
MIC [11]: 20 µg/mL (≈ 41.9 µM)
MIC [12]: 20 µg/mL (≈ 41.9 µM)

CCC(C)Cn1cc(CN2C(=O)C3(C(C#N)=C(N)Oc4c3ccc3[nH]c5ccccc5c43)c3ccccc32)nn1 (stereo not drawn)
IC50 [8]: 3.8 µM
IC50 [9]: 14.9 µM

CCOC(=O)N1C/C(=C\c2ccc([N+](=O)[O-])cc2)C(=O)[C@@]2(C1)[C@H](c1ccc([N+](=O)[O-])cc1)[C@H]1CCCN1[C@]21C(=O)Nc2ccccc21
MIC [15]: 1.95 µg/mL (≈ 3.06 µM)
MIC [16]: 0.06 µg/mL (≈ 0.0941 µM)
MIC [17]: inactive
MIC [18]: 15.6 µg/mL (≈ 24.5 µM)
MIC [19]: 1.95 µg/mL (≈ 3.06 µM)
MIC [20]: 0.49 µg/mL (≈ 0.768 µM)
MIC [21]: 0.12 µg/mL (≈ 0.188 µM)
MIC [22]: inactive

CC1(C)CC(=O)C2=C(C1)N(c1ccccn1)C(=O)C21C2=C(Nc3ccccc31)C(=O)CC(C)(C)C2 (stereo not drawn)
MIC [23]: 125 µg/mL (≈ 267 µM)
MIC [24]: 50 µg/mL (≈ 107 µM)
MIC [25]: 62 µg/mL (≈ 133 µM)
MIC [26]: inactive

CCOC(=O)N1C/C(=C\c2ccc(Cl)cc2)C(=O)[C@@]2(C1)[C@H](c1ccc(Cl)cc1)CN(C)[C@]21C(=O)Nc2ccccc21
MIC [15]: 0.12 µg/mL (≈ 0.203 µM)
MIC [16]: 0.015 µg/mL (≈ 0.0254 µM)
MIC [17]: 15.6 µg/mL (≈ 26.5 µM)
MIC [18]: 1.95 µg/mL (≈ 3.3 µM)
MIC [19]: 0.015 µg/mL (≈ 0.0254 µM)
MIC [20]: 1.95 µg/mL (≈ 3.3 µM)
MIC [21]: 0.015 µg/mL (≈ 0.0254 µM)
MIC [22]: 0.06 µg/mL (≈ 0.102 µM)

CC(C)CC1NC2(C(=O)Nc3ccccc32)C(C(=O)c2ccc(F)cc2)C1c1ccccc1 (stereo not drawn)
MIC [11]: 20 µg/mL (≈ 45.2 µM)
MIC [12]: 20 µg/mL (≈ 45.2 µM)

O=C1OCC2=C1C1(Nc3ccc(Cl)cc3N2)C(=O)Nc2ccccc21 (stereo not drawn)
IC50 [27]: 2.9 µM
IC50 [28]: 5.4 µM
IC50 [29]: 9.5 µM
IC50 [30]: 1.7 µM

CO[C@H]1/C=C/O[C@@]2(C)Oc3c(C)c(O)c4c(O)c(c(/C=N/N5CCN(C)CC5)c(O)c4c3C2=O)NC(=O)/C(C)=C\C=C\[C@H](C)[C@H](O)[C@@H](C)[C@@H](O)[C@@H](C)[C@H](OC(C)=O)[C@@H]1C [RIFAMPIN]
MIC [2]: 0.51 µg/mL (≈ 0.62 µM)
MIC [3]: 0.75 µg/mL (≈ 0.911 µM)
